Test results: patent US9026203B2, “Photosensitizing compositions” (PCI Biotech AS, priority 2009, dated 2015)
Like-named read-outs stand apart in the source and are kept apart here.

Legend:
[1] = Stability of aqueous solutions of salts at 40° C., analyzed by HPLC; assay type: physicochemical
Method: Aqueous solutions of TPPS2a salts (approx. 1% weight) were kept at 40° C. for 31 days. The solutions were analyzed by HPLC (HP 1100). The HPLC conditions were as follows:
Column: Agilent Extend C-18
Mobile phase: 85% methanol, 15% water
Detector: UV detector, 415 nm
Aqueous solutions of TPCS2a salts (approx. 1% weight) were kept at 40° C. for 31 days.

[2] = Solubility of salts in water (water added in 0.2 ml portions); assay type: physicochemical
Source text: The mixture was agitated until solid particles were broken up and dissolved.

[3] = tested on: target tumour (head and neck squamous cell carcinoma, osteosarcoma, skin metastases of breast cancer); conditions: other photosensitizers formulated in non-aqueous formulations; cited from earlier work
[4] = tested on: target tumour (head and neck squamous cell carcinoma, osteosarcoma, skin metastases of breast cancer); assay type: in vivo, patients; conditions: 0.25-1.0 mg/kg 4 days before illumination (652 nm, 60 J/cm^2), bleomycin 15 000 IU per m^2 i.v. 3 hours before illumination; a few weeks after treatment
Method: In addition, the patients received an intravenous injection of the cytotoxic agent bleomycin (15 000 IU per m^2 body surface) 3 hours before illumination. […] The aqueous formulation also made it possible to flush the injection needle and vein with saline after photosensitizer injection, thereby eliminating the unwanted effect of photosensitivity at or near to the injection site which is often observed for photosensitizers in non-aqueous formulations where such flushing is not possible. The patient population included patients with head and neck cancers (squamous cell carcinoma), osteosarcoma and skin metastases of breast cancer.

[5] = aqueous solution approx. 1% weight, 40° C. for 31 days, HPLC UV 415 nm

Molecule	Degradation [1, 5]	Degradation [1]	other results
NCCO.NCCO.O=S(=O)(O)c1ccc(-c2c3nc(c(-c4ccc(S(=O)(=O)O)cc4)c4ccc([nH]4)c(-c4ccccc4)c4nc(c(-c5ccccc5)c5ccc2[nH]5)C=C4)C=C3)cc1 [Example 1, Meso-Tetraphenyl Porphyrin Disulphonate bis(monoethanolamine)]	No degradation	–	–
CNCC(O)C(O)C(O)C(O)CO.CNCC(O)C(O)C(O)C(O)CO.O=S(=O)(O)c1ccc(-c2c3nc(c(-c4ccccc4)c4ccc([nH]4)c(-c4ccccc4)c4nc(c(-c5ccc(S(=O)(=O)O)cc5)c5ccc2[nH]5)C=C4)C=C3)cc1 [Example 2, Meso-Tetraphenyl Porphyrin Disulphonate bis(meglumate)]	–	No degradation	Minimum solubility in water [2]: 89.7 mg/mL
O=S(=O)(O)c1ccc(-c2c3nc(c(-c4ccccc4)c4ccc([nH]4)c(-c4ccccc4)c4nc(c(-c5ccc(S(=O)(=O)O)cc5)c5ccc2[nH]5)C=C4)C=C3)cc1.OCCNCCO.OCCNCCO [Example 4, Meso-Tetraphenyl Porphyrin Disulphonate bis(diethanolamine)]	–	No degradation	–
O=S(=O)(O)c1ccc(-c2c3nc(c(-c4ccc(S(=O)(=O)O)cc4)c4ccc([nH]4)c(-c4ccccc4)c4nc(c(-c5ccccc5)c5ccc2[nH]5)C=C4)C=C3)cc1.OCCN1CCCC1.OCCN1CCCC1 [Example 5, Meso-Tetraphenyl Porphyrin Disulphonate bis(1-(2-hydroxyethyl)pyrrolidine)]	–	No degradation	–
O=S(=O)(O)c1ccc(-c2c3nc(c(-c4ccc(S(=O)(=O)O)cc4)c4ccc([nH]4)c(-c4ccccc4)c4nc(c(-c5ccccc5)c5ccc2[nH]5)C=C4)C=C3)cc1.OCCN(CCO)CCO.OCCN(CCO)CCO [Example 6, Meso-Tetraphenyl Porphyrin Disulphonate bis(triethanolamine)]	No degradation	–	–
Oc1cccc(-c2c3nc(c(-c4cccc(O)c4)c4ccc([nH]4)c(-c4cccc(O)c4)c4nc(c(-c5cccc(O)c5)c5ccc2[nH]5)CC4)C=C3)c1 [temoporfin]	–	–	Pain on administration [3]: can be associated with strong pain
Meso-Tetraphenyl Chlorin Disulphonate bis(meglumate) [Example 8]	No degradation	–	Minimum solubility in water ([2]; approx. 50 mg salt, water added in 0.2 ml portions until dissolved): 38.9 mg/mL
Meso-Tetraphenyl Chlorin Disulphonate bis(monoethanolamine) [Example 7]	–	No degradation	–
Meso-tetraphenyl chlorin disulphonate [TPCS2a]	–	–	Clinical regression of the target tumour [4]: Complete clinical regression of the target tumour was induced in all patients
